The structures appear in SMILES notation. Read-outs that look alike come from different tables or passages of the source.

The bioavailability is the share of a dose that reaches the circulation, judged against a reference dose that is usually intravenous. Low values mean poor availability, high ones good availability. For orientation: half-life means the time needed for the level to fall by half in the phase considered.

Series [1] concerns gastrointestinal motility. The series is described as follows: Gastrointestinal motility (charcoal transportation). The format is in vivo, male ICR mice. The conditions noted are these: mice, 100 mg/kg orally, charcoal one hour later. The method, then:
Pharmacological Test 6 (Gastrointestinal Motility) A test compound was orally administered to male ICR mice (4–6 weeks old) under the overnight fasting condition and, one hour later, 0.5% charcoal suspension (0.1 ml/10 g body weight) was orally administered. One hour after the administration of the charcoal, gastrointestinal tracts of the animals were removed, and length of the intestine from pylorus to the point to which charcoal reached was measured to obtain charcoal transportation ratio.

The nature of the next series: Pharmacokinetics test. The class given is in vivo. The settings on record: rat, plasma, male SD rats, overnight fasting. As to the method:
Pharmacological Test 3 (Pharmacokinetics Test)
A test compound was orally or intravenously administered to male SD rats (7–10 weeks old, 200–400 g) under the overnight fasting condition. About 100 μL of blood was collected from the tail vein by heparinized capillary at designated time. The blood was centrifuged (4° C., 6,000 r.p.m., 10 minutes) to obtain the plasma. Three-fold amount of ethanol containing an internal standard was added to plasma. The mixture was stirred, allowed to stand at −20° C. for 20 minutes, and then centrifuged (4° C., 10,000 r.p.m., 10 minutes). The supernatant was analyzed by LC/MS/MS, and the concentration of the test compound in the plasma was measured using a relative calibration curve.

The subject of the next series is general symptoms. The series can be described thus: General symptoms observation. The class given is in vivo. The settings on record: mice, 100 mg/kg orally, observed 0.5 to 24 hours after administration. As to the method: Pharmacological Test 5 (General Symptoms Observation)
A test compound was orally administered to male ICR mice (4–6 weeks old) under the overnight fasting condition, and general symptoms were observed 0.5, 1, 2, 3, 4 and 24 hours after the administration. The following 28 items were observed: stereotypy, glooming, vocalization, exploratory behavior, motor coordination, Straub tail reaction, tremor, convulsion, body posture, piloerection, writhing, palpebral opening, exophthalmos, skin color, respiratory rate, urination, defecation, salivation, lacrimation, startle response, aggression, grip strength, corneal reflex, body temperature, body tone, righting reflex, pain response and death.

For a further series, the system named is canine cardiac function. The series is described as follows: Canine cardiac function. The settings on record: anesthetized beagle dogs, 3 mg/kg and 10 mg/kg via vein cannula, up to 60 minutes. The class given is in vivo, male beagle dogs. From the text: Pharmacological Test 7 (Canine Cardiac Function)
The left femoral artery and vein of male beagle dogs (age: 9 months or older, weight: 10–15 kg) under anesthesia with isoflurane and artificial respiration were respectively cannulated for determination of arterial pressure and for administration of drugs. A tip catheter pressure transducer was placed in the left ventricle from the left carotid artery for determination of the left ventricular pressure. A Swan-Ganz catheter was placed in the pulmonary artery from the jugular vein via the right ventricle for determination of the pulmonary artery pressure, right atrium pressure and cardiac output. A transit doppler flow probe was attached to the right femoral artery for determination of the femoral blood flow. After completion of the operation, a solvent was administered from the cannula in the vein, followed by administration of a drug to be tested. Each parameter was determined just after the administration, and 10, 20, 30 and 60 minutes after the administration. The parameters determined were artery pressure, left ventricular pressure, pulmonary artery pressure, right atrium pressure, cardiac output, femoral blood flow, heart rate, electrocardiogram, left ventricular contractile performance (first differential of the left ventricular pressure), total peripheral vascular resistance, body temperature and arterial blood gas.

The target in another series is T1, human NPY Y5 receptor (Homo sapiens, UniProt Q15761).
T1 construct: expressed in transfected cells; host or cells: COS-7, CHO and LM(tk-)
T1 sequence (Q15761 1-445): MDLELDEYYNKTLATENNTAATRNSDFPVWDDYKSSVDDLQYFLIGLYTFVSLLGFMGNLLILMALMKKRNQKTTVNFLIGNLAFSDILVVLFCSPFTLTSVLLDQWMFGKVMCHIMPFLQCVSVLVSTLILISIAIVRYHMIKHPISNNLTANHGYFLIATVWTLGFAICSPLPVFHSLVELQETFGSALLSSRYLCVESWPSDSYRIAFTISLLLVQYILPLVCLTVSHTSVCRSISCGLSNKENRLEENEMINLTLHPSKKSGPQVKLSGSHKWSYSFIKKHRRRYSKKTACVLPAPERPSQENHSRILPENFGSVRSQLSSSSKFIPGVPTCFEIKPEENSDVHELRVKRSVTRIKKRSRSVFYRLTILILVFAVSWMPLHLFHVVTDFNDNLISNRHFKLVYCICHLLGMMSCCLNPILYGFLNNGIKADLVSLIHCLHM
The series can be described thus: NPY binding inhibition test ([125I]peptide YY binding to membranes of NPY Y5 receptor expression cells). The settings on record: [125I]peptideYY, membranes of NPY Y5 receptor expressing cells, 25° C., 2 hours; read-out: 50% Inhibitory Concentration (IC50) against specific peptide YY binding. From the text:
Pharmacological Test 1 (NPY Binding Inhibition Test)
cDNA sequence encoding human NPY Y5 receptor (c.f. International patent publication WO96/16542) was cloned into expression vectors pcDNA3, pRc/RSV (made by Invitrogen Inc.) and pCI-neo (made by Promega Inc.). The expression vectors thus obtained were transfected to host cells COS-7, CHO and LM(tk−) (American Type Culture Collection) by cationic lipid method (Proceedings of the National Academy of Sciences of the United States of America, vol. 84: p. 7413(1987)) to give NPY Y5 receptor expression cells.
A membrane sample prepared from the cells which expressed NPY Y5 receptor was incubated together with a test compound and [^125I]peptideYY (made by NEN) (20,000 cpm) in an assay buffer (25 mM Tris buffer, pH7.4, containing 10 mM magnesium chloride, 1 mM phenylmethylsulfonyl fluoride, 0.1% bacitracin and 0.5% bovine serum albumin) at 25° C. for 2 hours, then filtered through a glass filter GF/C and washed with 5 mM Tris buffer (pH7.4) containing 0.3% BSA. The radioactivity of the cake on the glass filter was measured. Non-specific binding was measured in the presence of 1 μM peptide YY, and a 50% Inhibitory Concentration (IC50) of the test compound against specific peptide YY binding was determined (Endocrinology, vol. 131: p. 2090(1992)).

Series [2] can be described thus: Brain/cerebrospinal fluid transport test. The format is in vivo, male SD rats. The settings on record: rat, one hour after oral administration (10 mg/kg); for concentration at 1 h: male, SD. As to the method: Pharmacological Test 4 (Brain/Cerebrospinal Fluid Transport Test)
A test compound was orally or intravenously administered to male SD rats (7–10 weeks old, 200–400 g), and whole blood was collected from the abdominal aorta using a heparin-treated syringe under the ether anesthesia at designated time. Then, the head skin was cut out, and a dental 30 G needle was inserted between the cervical vertebrae, and it was further inserted into the cavum subarachnoideum. After 50 to 100 μL cerebrospinal fluid had been collected by a 1 ml-syringe through a tube connected to the dental 30 G needle, the brain was extracted. The blood sample was centrifuged (4° C., 6,000 r.p.m., 10 minutes) to obtain the plasma, and 3-fold amount of ethanol containing an internal standard was added and stirred. The brain sample was homogenized after addition of 2 ml water, and an aliquot of the homogenate was taken and 3-fold amount of ethanol containing an internal standard was added and stirred. The cerebrospinal fluid was stirred after adding 3-fold amount of ethanol containing an internal standard. These samples were allowed to stand at −20° C. for 20 minutes, and then centrifuged (4° C., 12,000 g, 10 minutes). The supernatant was analyzed by LC/MS/MS, and the concentration of the test compound in the plasma, brain, and cerebrospinal fluid were measured by the method using a relative calibration curve.

In the case of `C[C@@H]1NC(c2cccc(=O)[nH]2)=N[C@]1(c1ccc(F)cc1)c1ccnc(F)c1` [Example 1, 6-[(4R,5S)-4-(4-fluorophenyl)-4-(2-fluoro-4-pyridyl)-5-methyl-2-imidazolin-2-yl]-2(1H)-pyridinone], the “effect on gastrointestinal motility (charcoal transportation ratio)” value in series [1] is on record as “did not affect”. For the same compound, in “Pharmacokinetics test” (oral or intravenous administration), the bioavailability is 51%. The half-life in the series “Pharmacokinetics test” is 150 min. The “effect on general symptoms (28 items)” value with general symptoms was “did not affect”. Also, the “effect on canine cardiac function” value in the series with canine cardiac function is reported as “did not affect”. Also, the IC50 on human NPY Y5 receptor worked out at 2.8 nM. In addition, the concentration at 1 h worked out at 106 nM in series [2] (cerebrospinal fluid, read-out: concentration in the cerebrospinal fluid) and 2790 nM in series [2] (plasma, read-out: concentration in the plasma). Further, the “concentration in the brain” value in series [2] is 0.29 nmol/g.

The values above are taken from patent US7119107B2, “Pyridone derivatives” (Banyu Pharmaceutical Co., Ltd., priority 2002, dated 2006).
